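Protocol summary: plate cells (96-well), add compound at 5 concentrations, incubate 48 h, interpolate endpoints linearly. At the TGI there is no net growth.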
What was measured:
Assay in all cases: growth of human tumour cells (NCI), 48 h
[1] = system: 786-0 renal
[2] = system: A498 renal
[3] = system: A549 NSCLC
[4] = system: ACHN renal
[5] = system: BT-549 breast
[6] = system: CAKI-1 renal
[7] = system: CCRF-CEM leukemia
[8] = system: COLO 205 colon
[9] = system: DU-145 prostate
[10] = system: EKVX NSCLC
[11] = system: HCC-2998 colon
[12] = system: HCT-116 colon
[13] = system: HCT-15 colon
[14] = system: HL-60(TB) leukemia
[15] = system: HOP-62 NSCLC
[16] = system: HOP-92 NSCLC
[17] = system: HS 578T breast
[18] = system: HT29 colon
[19] = system: IGROV1 ovarian
[20] = system: K-562 leukemia
[21] = system: KM12 colon
[22] = system: LOX IMVI melanoma
[23] = system: M14 melanoma
[24] = system: MALME-3M melanoma
[25] = system: MCF7 breast
[26] = system: MDA-MB-231 breast
[27] = system: MDA-MB-435
[28] = system: MDA-N
[29] = system: MOLT-4 leukemia
[30] = system: NCI-H226 lung
[31] = system: NCI-H23 lung
[32] = system: NCI-H460 lung
[33] = system: NCI-H522 lung
[34] = system: NCI/ADR-RES ovarian
[35] = system: OVCAR-3 ovarian
[36] = system: OVCAR-4 ovarian
[37] = system: OVCAR-5 ovarian
[38] = system: OVCAR-8 ovarian
[39] = system: PC-3 prostate
[40] = system: RPMI-8226 leukemia
[41] = system: RXF 393 renal
[42] = system: SF-268 CNS
[43] = system: SF-295 CNS
[44] = system: SF-539 CNS
[45] = system: SK-MEL-2 melanoma
[46] = system: SK-MEL-28 melanoma
[47] = system: SK-MEL-5 melanoma
[48] = system: SK-OV-3 ovarian
[49] = system: SN12C renal
[50] = system: SNB-19 CNS
[51] = system: SNB-75 CNS
[52] = system: SR leukemia
[53] = system: SW-620 colon
[54] = system: T-47D breast
[55] = system: TK-10 renal
[56] = system: U251 CNS
[57] = system: UACC-257 melanoma
[58] = system: UACC-62 melanoma
[59] = system: UO-31 renal
[60] = system: DLD-1 colon
[61] = system: DMS 114 small cell lung
[62] = system: DMS 273 small cell lung
[63] = system: KM20L2 colon
[64] = system: M19-MEL melanoma
[65] = system: SNB-78 CNS

Structure (SMILES): O=C(N/N=C\c1ccc(Cl)cc1)Nc1cccc2ccccc12
- TGI [1]: 3.9 µM
- TGI [2]: 7.13 µM
- TGI [3]: 27 µM
- TGI [4]: 4.92 µM
- TGI [5]: > 100 µM
- TGI [6]: 4.76 µM
- TGI [7]: > 31.9 µM
- TGI [8]: > 100 µM
- TGI [9]: > 100 µM
- TGI [10]: > 100 µM
- TGI [11]: > 100 µM
- TGI [12]: > 23.2 µM
- TGI [13]: > 31.6 µM
- TGI [14]: 27.1 µM
- TGI [15]: 5.25 µM
- TGI [16]: 21.2 µM
- TGI [17]: 12 µM
- TGI [18]: > 100 µM
- TGI [19]: > 25.8 µM
- TGI [20]: > 100 µM
- TGI [21]: > 23 µM
- TGI [22]: > 100 µM
- TGI [23]: > 100 µM
- TGI [24]: > 24.4 µM
- TGI [25]: 22.3 µM
- TGI [26]: > 59.1 µM
- TGI [27]: 6.67 µM
- TGI [28]: > 21.3 µM
- TGI [29]: > 43.7 µM
- TGI [30]: > 30 µM
- TGI [31]: 98.9 µM
- TGI [32]: 10.2 µM
- TGI [33]: > 31.5 µM
- TGI [34]: > 100 µM
- TGI [35]: 3.24 µM
- TGI [36]: 6.84 µM
- TGI [37]: > 100 µM
- TGI [38]: > 40.8 µM
- TGI [39]: > 100 µM
- TGI [40]: > 100 µM
- TGI [41]: 9.99 µM
- TGI [42]: > 26.1 µM
- TGI [43]: 6.2 µM
- TGI [44]: 35.7 µM
- TGI [45]: > 100 µM
- TGI [46]: > 100 µM
- TGI [47]: > 37.4 µM
- TGI [48]: 6.75 µM
- TGI [49]: 76 µM
- TGI [50]: 5.64 µM
- TGI [51]: 5.62 µM
- TGI [52]: 9.11 µM
- TGI [53]: > 76.6 µM
- TGI [54]: > 100 µM
- TGI [55]: 17 µM
- TGI [56]: 10.1 µM
- TGI [57]: > 100 µM
- TGI [58]: > 100 µM
- TGI [59]: 4.84 µM

Structure (SMILES): O=C(/C=C/c1ccc(O)c(O)c1)c1ccc(O)cc1O
- TGI [1]: 25.5 µM
- TGI [2]: 34.7 µM
- TGI [3]: 72.3 µM
- TGI [4]: 45.3 µM
- TGI [5]: 14.6 µM
- TGI [6]: 28.9 µM
- TGI [7]: > 71.7 µM
- TGI [8]: 31 µM
- TGI [60]: 29.3 µM
- TGI [61]: 7.55 µM
- TGI [62]: 25 µM
- TGI [9]: 18.9 µM
- TGI [10]: 75.6 µM
- TGI [11]: 34.2 µM
- TGI [12]: 28 µM
- TGI [13]: 44.3 µM
- TGI [14]: 22.3 µM
- TGI [15]: 42.4 µM
- TGI [16]: 33.3 µM
- TGI [17]: 78.8 µM
- TGI [18]: 33.4 µM
- TGI [19]: 35.1 µM
- TGI [20]: 25.4 µM
- TGI [21]: 24.3 µM
- TGI [63]: 31.3 µM
- TGI [22]: 24 µM
- TGI [23]: 34.7 µM
- TGI [64]: 27.1 µM
- TGI [24]: 28.7 µM
- TGI [25]: 15.7 µM
- TGI [26]: 50.8 µM
- TGI [27]: 29.1 µM
- TGI [28]: 19.8 µM
- TGI [29]: 55.9 µM
- TGI [30]: 37.6 µM
- TGI [31]: 39.9 µM
- TGI [32]: 36.3 µM
- TGI [33]: 8.65 µM
- TGI [34]: > 84.1 µM
- TGI [35]: 37.4 µM
- TGI [36]: 37.8 µM
- TGI [37]: 32.8 µM
- TGI [38]: 51 µM
- TGI [39]: 52.6 µM
- TGI [40]: 55.2 µM
- TGI [41]: 25.8 µM
- TGI [42]: 37.6 µM
- TGI [43]: 50.3 µM
- TGI [44]: 25.8 µM
- TGI [45]: 33.4 µM
- TGI [46]: 30.5 µM
- TGI [47]: 26.3 µM
- TGI [48]: 38 µM
- TGI [49]: 43.9 µM
- TGI [50]: 43.9 µM
- TGI [51]: 25.2 µM
- TGI [65]: 58.3 µM
- TGI [52]: > 78.8 µM
- TGI [53]: 35.2 µM
- TGI [54]: 20 µM
- TGI [55]: 60.3 µM
- TGI [56]: 17.6 µM
- TGI [57]: 29.9 µM
- TGI [58]: 48.3 µM
- TGI [59]: 30.3 µM
